{
  "source": "patent US20220227762A1",
  "about": "“AMIDE-SUBSTITUTED IMIDAZO COMPOUNDS AS SELECTIVE INHIBITORS OF INDOLEAMINE 2,3-DIOXYGENASES” (BEIGENE, LTD., priority 2019, published 2022)",
  "data": [
    {"molecular_target": "T1, IDO1 (Homo sapiens, UniProt P14902)", "T1 construct": "endogenous in cells; host or cells: HeLa cells (American Type Culture Collection), induced with human recombinant IFN-γ", "T1 sequence (P14902 whole entry)": "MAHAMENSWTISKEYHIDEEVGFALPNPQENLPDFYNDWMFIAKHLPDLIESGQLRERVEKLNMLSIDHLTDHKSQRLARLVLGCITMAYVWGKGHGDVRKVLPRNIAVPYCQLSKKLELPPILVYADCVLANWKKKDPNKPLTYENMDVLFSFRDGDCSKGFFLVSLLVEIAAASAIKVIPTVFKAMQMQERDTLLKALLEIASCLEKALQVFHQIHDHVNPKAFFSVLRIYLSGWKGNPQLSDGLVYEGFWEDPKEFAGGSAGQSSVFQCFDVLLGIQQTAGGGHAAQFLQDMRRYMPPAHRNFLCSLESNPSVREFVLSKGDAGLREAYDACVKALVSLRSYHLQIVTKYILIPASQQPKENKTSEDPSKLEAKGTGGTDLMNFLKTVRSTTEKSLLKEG", "test": "HeLa Cell-Based IDO1 Kyn (Kynurenine) Production Assay", "conditions": "HeLa cells, IDO1 induced by IFN-γ, 0.4 mM L-Trp, 48 hours incubation, Kyn absorbance at 480 nm; read-out: Cell-Based EC50 (nM) Hela IDO1", "procedure": "HeLa Cell-Based IDO1 Kyn (Kynurenine) Production Assay:\nThe inhibitory activity of IDO1 inhibitors is determined by using a colorimetric reaction to measure Kyn generated from L-Trp (L-Tryptophon) oxidation by cellular IDO1 in HeLa cells after induction of IDO1 expression by IFN-γ. Hela cells were obtained from the American Type Culture Collection and recovered in 10% FBS-containing phenol red-free DMEM medium. Cells were plated onto a 96-well plate (100 μl/well) at 8000 cells per well and kept at 37° C. in a humidified incubator supplied with 5% CO2. 4 hours later, Human recombinant IFN-γ (8901SC, CST) was added to cells (final concentration 100 ng/mL) to stimulate endogenous IDO1. Compounds at different concentrations diluted in dimethylsulfoxide (DMSO) were added simultaneously with IFN-γ and 0.4 mM L-Trp. Cells were kept at 37° C. in a humidified incubator supplied with 5% CO2. After 48 hours of incubation, 100 μl supernatant from each well was removed to a new plate. The protein in the medium was precipitated with the addition of 8 μl 6N trichloroacetic acid. The plate was incubated at 60° C. for 30 minutes and then centrifugation at 2500 rpm for 10 minutes to remove sediments. 80 μl supernatants were carefully removed to a new clean plate and added with an equal volume of 2% 4-(Dimethylamino)benzaldehyde (D2004, Sigma) dissolved in glacial acetic acid. The absorbance at 480 nm wavelength derived from Kyn was measured using a PHERAstar FS plate reader (BMG LABTECH). The IC50 for each compound was derived from fitting the dose-response data to the four-parameter logistic model by using XLfit software (IDBS).", "units": {"EC50": "nM"}, "values": [
      {"compound": "CONC(=O)c1ccc2nc(C(C)[C@H]3CC[C@@H](c4ccnc5ccc(F)cc54)CC3)[nH]c2c1", "note": "(some centres unmarked) [Example 7, 2-(1-((1s,4s)-4-(6-fluoroquinolin-4-yl)cyclohexyl)ethyl)-N-methoxy-1H-benzo[d]imidazole-6-carboxamide]", "EC50": 470},
      {"compound": "COCCNC(=O)c1ccc2nc([C@H](C)[C@H]3CC[C@H](c4ccnc5ccc(F)cc54)CC3)[nH]c2c1", "note": "[Example 12, 2-((R)-1-((1r,4R)-4-(6-fluoroquinolin-4-yl)cyclohexyl)ethyl)-N-(2-methoxyethyl)-1H-benzo[d]imidazole-6-carboxamide]", "EC50": 959},
      {"compound": "COCCNC(=O)c1ccc2nc([C@H](C)[C@H]3CC[C@@H](c4ccnc5ccc(F)cc54)CC3)[nH]c2c1", "note": "[Example 13, 2-((R)-1-((1s,4S)-4-(6-fluoroquinolin-4-yl)cyclohexyl)ethyl)-N-(2-methoxyethyl)-1H-benzo[d]imidazole-6-carboxamide]", "EC50": 62.9},
      {"compound": "CNC(=O)c1cc2[nH]c(C(C)[C@H]3CC[C@@H](c4ccnc5ccc(F)cc54)CC3)nc2cn1", "note": "(mixture of isomers) [Example 23, 2-(1-((1s,4s)-4-(6-fluoroquinolin-4-yl)cyclohexyl)ethyl)-N-methyl-1H-imidazo[4,5-c]pyridine-6-carboxamide]", "EC50": 7.12},
      {"compound": "CC(c1nc2cnc(C(=O)NC3CC3)cc2[nH]1)[C@H]1CC[C@@H](c2ccnc3ccc(F)cc32)CC1", "note": "(mixture of isomers) [Example 22, N-cyclopropyl-2-(1-((1s,4s)-4-(6-fluoroquinolin-4-yl)cyclohexyl)ethyl)-1H-imidazo[4,5-c]pyridine-6-carboxamide]", "EC50": 3.12},
      {"compound": "CC(c1nc2ccc(C(=O)NC3COC3)cc2[nH]1)C1CCC(c2ccnc3ccc(F)cc23)CC1", "note": "(centres unmarked) [Example 11, 2-(1-(4-(6-fluoroquinolin-4-yl)cyclohexyl)ethyl)-N-(oxetan-3-yl)-1H-benzo[d]imidazole-6-carboxamide]", "EC50": 84.1},
      {"compound": "C[C@@H](c1nc2cc(C(=O)NC3CC3)cnc2[nH]1)[C@H]1CC[C@@H](c2ccnc3ccc(F)cc32)CC1", "note": "[Example 24, N-cyclopropyl-2-((R)-1-((1s,4S)-4-(6-fluoroquinolin-4-yl)cyclohexyl)ethyl)-3H-imidazo[4,5-b]pyridine-6-carboxamide]", "EC50": 24.9},
      {"compound": "COC1CCC(NC(=O)c2ccc3nc([C@H](C)[C@H]4CC[C@@H](c5ccnc6ccc(F)cc65)CC4)[nH]c3c2)CC1", "note": "(stereo partly drawn) [Example 18, 2-((R)-1-((1s,4S)-4-(6-fluoroquinolin-4-yl)cyclohexyl)ethyl)-N-(4-methoxycyclohexyl)-1H-benzo[d]imidazole-6-carboxamide]", "EC50": 122},
      {"compound": "CC(c1nc2cc(C(=O)N(C)C)ccc2[nH]1)[C@H]1CC[C@@H](c2ccnc3ccc(F)cc32)CC1", "note": "(some centres unmarked) [Example 8, 2-(1-((1s,4s)-4-(6-fluoroquinolin-4-yl)cyclohexyl)ethyl)-N,N-dimethyl-1H-benzo[d]imidazole-5-carboxamide]", "EC50": 46.1},
      {"compound": "C[C@@H](c1nc2ccc(C(=O)NC3CCCC3)cc2[nH]1)[C@H]1CC[C@@H](c2ccnc3ccc(F)cc32)CC1", "note": "[Example 5, N-cyclopentyl-2-((R)-1-((1s,4S)-4-(6-fluoroquinolin-4-yl)cyclohexyl)ethyl)-1H-benzo[d]imidazole-6-carboxamide]", "EC50": 38.8},
      {"compound": "Cc1cc(C(=O)NC2CCC2)cc2nc(C(C)[C@H]3CC[C@@H](c4ccnc5ccc(F)cc54)CC3)[nH]c12", "note": "(some centres unmarked) [Example 10, N-cyclobutyl-2-(1-((1s,4s)-4-(6-fluoroquinolin-4-yl)cyclohexyl)ethyl)-7-methyl-1H-benzo[d]imidazole-5-carboxamide]", "EC50": 27.1},
      {"compound": "Cc1cc(C(=O)NC2CCC2)cc2nc([C@H](C)[C@H]3CC[C@@H](c4ccnc5ccc(F)cc54)CC3)[nH]c12", "note": "[Example 10b, N-cyclobutyl-2-((S)-1-((1s,4R)-4-(6-fluoroquinolin-4 yl)cyclohexyl)ethyl)-7-methyl-1H-benzo[d]imidazole-5-carboxamide]", "EC50": 17.1},
      {"compound": "CCNC(=O)c1cc2nc([C@H](C)[C@H]3CC[C@@H](c4ccnc5ccc(F)cc54)CC3)[nH]c2cn1", "note": "[Example 26, N-ethyl-2-((R)-1-((1s,4S)-4-(6-fluoroquinolin-4-yl)cyclohexyl)ethyl)-3H-imidazo[4,5-c]pyridine-6-carboxamide]", "EC50": 0.77},
      {"compound": "C[C@@H](c1nc2ccc(C(=O)NCC3(O)CCC3)cc2[nH]1)[C@H]1CC[C@H](c2ccnc3ccc(F)cc32)CC1", "note": "[Example 17, 2-((R)-1-((1 r,4R)-4-(6-fluoroquinolin-4-yl)cyclohexyl)ethyl)-N-((1-hydroxycyclobutyl)methyl)-1H-benzo[d]imidazole-6-carboxamide]", "EC50": "> 1000"},
      {"compound": "CC(C)NC(=O)c1ccc2nc([C@H](C)[C@H]3CC[C@@H](c4ccnc5ccc(F)cc54)CC3)[nH]c2c1", "note": "[Example 2, 2-((R)-1-((1s,4S)-4-(6-fluoroquinolin-4-yl)cyclohexyl)ethyl)-N-isopropyl-1H-benzo[d]imidazole-6-carboxamide]", "EC50": 50.6},
      {"compound": "CC(c1nc2cc3c(=O)[nH]cnc3cc2[nH]1)[C@H]1CC[C@@H](c2ccnc3ccc(F)cc32)CC1", "note": "(some centres unmarked) [Example 25, 2-(1-((1s,4s)-4-(6-fluoroquinolin-4-yl)cyclohexyl)ethyl)-3,7-dihydro-8H-imidazo[4,5-g]quinazolin-8-one]", "EC50": 82.4},
      {"compound": "Cc1cc(C(=O)NC2CCC2)cc2nc([C@@H](C)[C@H]3CC[C@@H](c4ccnc5ccc(F)cc54)CC3)[nH]c12", "note": "[Example 10a, N-cyclobutyl-2-((R)-1-((1s,4S)-4-(6-fluoroquinolin-4-yl)cyclohexyl)ethyl)-7-methyl-1H-benzo[d]imidazole-5-carboxamide]", "EC50": 788},
      {"compound": "CC(c1nc2c(F)c(F)c(C(=O)NC3CC3)cc2[nH]1)[C@H]1CC[C@@H](c2ccnc3ccc(F)cc32)CC1", "note": "(some centres unmarked) [Example 21, N-cyclopropyl-4,5-difluoro-2-(1-((1s,4s)-4-(6-fluoroquinolin-4-yl)cyclohexyl)ethyl)-1H-benzo[d]imidazole-6-carboxamide]", "EC50": 8.9},
      {"compound": "C[C@@H](c1nc2ccc(C(=O)NCC3(O)CCC3)cc2[nH]1)[C@H]1CC[C@@H](c2ccnc3ccc(F)cc32)CC1", "note": "[Example 16, 2-((R)-1-((1s,4S)-4-(6-fluoroquinolin-4-yl)cyclohexyl)ethyl)-N-((1-hydroxycyclobutyl)methyl)-1H-benzo[d]imidazole-6-carboxamide]", "EC50": "> 1000"},
      {"compound": "C[C@@H](c1nc2ccc(C(=O)NC3CC3)cc2[nH]1)[C@H]1CC[C@@H](c2ccnc3ccc(F)cc32)CC1", "note": "[Example 9, N-cyclopropyl-2-((R)-1-((1s,4S)-4-(6-fluoroquinolin-4-yl)cyclohexyl)ethyl)-1H-benzo[d]imidazole-6-carboxamide]", "EC50": 12.6},
      {"compound": "C[C@@H](c1nc2ccc(C(=O)NC(C)(C)C)cc2[nH]1)[C@H]1CC[C@@H](c2ccnc3ccc(F)cc32)CC1", "note": "[Example 3, N-(tert-butyl)-2-((R)-1-((1s,4S)-4-(6-fluoroquinolin-4-yl)cyclohexyl)ethyl)-1H-benzo[d]imidazole-6-carboxamide]", "EC50": 74.5},
      {"compound": "COC1CCC(NC(=O)c2ccc3nc([C@H](C)[C@H]4CC[C@H](c5ccnc6ccc(F)cc65)CC4)[nH]c3c2)CC1", "note": "(stereo partly drawn) [Example 19, 2-((R)-1-((1r,4R)-4-(6-fluoroquinolin-4-yl)cyclohexyl)ethyl)-N-(4-methoxycyclohexyl)-1H-benzo[d]imidazole-6-carboxamide]", "EC50": 193},
      {"compound": "CNC(=O)c1ccc2[nH]c(C(C)[C@H]3CC[C@@H](c4ccnc5ccc(F)cc54)CC3)nc2c1", "note": "(some centres unmarked) [Example 1, 2-(1-((1s,4s)-4-(6-fluoroquinolin-4-yl)cyclohexyl)ethyl)-N-methyl-1H-benzo[d]imidazole-5-carboxamide]", "EC50": 64.1},
      {"compound": "C[C@@H](c1nc2ccc(C(=O)Nc3ccccc3)cc2[nH]1)[C@H]1CC[C@@H](c2ccnc3ccc(F)cc32)CC1", "note": "[Example 14, 2-((R)-1-((1s,4S)-4-(6-fluoroquinolin-4-yl)cyclohexyl)ethyl)-N phenyl-1H-benzo[d]imidazole-6-carboxamide]", "EC50": 14.4},
      {"compound": "C[C@@H](c1nc2ccc(C(=O)Nc3ccccc3)cc2[nH]1)[C@H]1CC[C@H](c2ccnc3ccc(F)cc32)CC1", "note": "[Example 15, 2-((R)-1-((1r,4R)-4-(6-fluoroquinolin-4-yl)cyclohexyl)ethyl)-N-phenyl-1H-benzo[d]imidazole-6-carboxamide]", "EC50": 86.7},
      {"compound": "C[C@@H](c1nc2ccc(C(=O)NC3CCCCC3)cc2[nH]1)[C@H]1CC[C@@H](c2ccnc3ccc(F)cc32)CC1", "note": "[Example 6, N-cyclohexyl-2-((R)-1-((1s,4S)-4-(6-fluoroquinolin-4-yl)cyclohexyl)ethyl)-1H-benzo[d]imidazole-6-carboxamide]", "EC50": 40.2}
    ]}
  ]
}
